This passage reports Ki results from patent publication US9067871B2, “Aminotetraline derivatives, pharmaceutical compositions containing them, and their use in therapy” (ABBVIE DEUTSCHLAND GMBH & CO KG, priority 2009, dated 2015).

Structures can show the parent of a compound that is named as a salt. Bounds are passed on as bounds.

Chain of human GlyT1c transporter (P48067 whole entry): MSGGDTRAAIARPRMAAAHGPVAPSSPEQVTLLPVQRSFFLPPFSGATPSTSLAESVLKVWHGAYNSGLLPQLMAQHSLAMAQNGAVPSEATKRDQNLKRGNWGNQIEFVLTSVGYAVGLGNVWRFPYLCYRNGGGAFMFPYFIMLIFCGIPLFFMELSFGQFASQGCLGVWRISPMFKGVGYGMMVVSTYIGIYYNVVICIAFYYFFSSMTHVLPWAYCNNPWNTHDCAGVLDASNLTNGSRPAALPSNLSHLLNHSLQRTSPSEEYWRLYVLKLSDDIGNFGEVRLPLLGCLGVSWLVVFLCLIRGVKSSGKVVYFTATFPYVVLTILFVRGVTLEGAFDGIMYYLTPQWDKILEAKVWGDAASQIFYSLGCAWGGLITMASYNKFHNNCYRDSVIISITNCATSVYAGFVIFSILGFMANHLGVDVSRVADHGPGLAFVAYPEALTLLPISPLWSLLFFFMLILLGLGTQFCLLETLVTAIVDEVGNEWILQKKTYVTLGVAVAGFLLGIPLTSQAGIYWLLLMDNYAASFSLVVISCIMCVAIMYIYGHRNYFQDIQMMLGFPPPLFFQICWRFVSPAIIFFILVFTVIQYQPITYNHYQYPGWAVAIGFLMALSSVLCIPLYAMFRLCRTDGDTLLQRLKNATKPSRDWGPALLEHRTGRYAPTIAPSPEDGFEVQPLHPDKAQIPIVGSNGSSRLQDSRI

The target in the experiment is human GlyT1c transporter (Homo sapiens (Human), UniProt P48067). The experiment can be described thus: Radioligand binding assay using recombinant CHO cell membranes expressing human GlyT1. To be noted: human GlyT1c-expressing CHO cell membranes; read-out: radioligand binding Kiapp. The source says:
2. Radioligand binding assays using recombinant CHO cell membranes expressing human GlyT1: […]
As to `NC1CCc2ccc(CCCNS(=O)(=O)CC3CC3)cc2C1Cc1ccc(F)c(F)c1` (stereo not shown) [Example 204, N-{3-[7-Amino-8-(3,4-difluoro-benzyl)-5,6,7,8-tetrahydro-naphthalen-2-yl]-propyl}-C-cyclopropyl-methanesulfonamide hydrochloride], the Ki was at most 100 nM.

On to `CCCS(=O)(=O)NCCCc1ccc2c(c1)C(Cc1ccc(F)c(F)c1)C(N)CC2` (stereo not shown) [Example 206, N-{3-[7-Amino-8-(3,4-difluoro-benzyl)-5,6,7,8-tetrahydronaphthalen-2-yl]propyl}propane-1-sulfonamide hydrochloride], for which the Ki is at most 100 nM.

Regarding `NC1CCc2ccc(CCCNS(=O)(=O)CC3CC3)cc2C1Cc1ccccc1` (stereo not shown) [Example 207, N-{3-[7-Amino-8-benzyl-5,6,7,8-tetrahydronaphthalen-2-yl]propyl}-1-cyclopropylmethanesulfonamide trifluoroacetate], the Ki is at most 100 nM.

For the molecule `NC1CCc2ccc(CCCNS(=O)(=O)CC3CC3)cc2C1Cc1ccc(F)cc1` (stereo not shown) [Example 208, N-{3-[7-Amino-8-(4-fluorobenzyl)-5,6,7,8-tetrahydronaphthalen-2-yl]propyl}-1-cyclopropylmethanesulfonamide hydrochloride], the Ki is at most 100 nM.

Turning to `CCCS(=O)(=O)NCCCc1ccc2c(c1)C(Cc1cccc(F)c1)C(N)CC2` (stereo not shown) [Example 209, N-{3-[7-Amino-8-(3-fluorobenzyl)-5,6,7,8-tetrahydronaphthalen-2-yl]propyl}propane-1-sulfonamide hydrochloride], the Ki is at most 100 nM.

As to `NC1CCc2ccc(CCCNS(=O)(=O)CC3CC3)cc2C1Cc1cccc(F)c1` (stereo not shown) [Example 210, N-{3-[7-Amino-8-(3-fluorobenzyl)-5,6,7,8-tetrahydronaphthalen-2-yl]propyl}-1-cyclopropylmethanesulfonamide hydrochloride], the Ki was at most 100 nM.

Regarding `CCCS(=O)(=O)NCCCc1ccc2c(c1)C(Cc1ccccc1Cl)C(N)CC2` (stereo not shown) [Example 211, N-{3-[7-Amino-8-(2-chlorobenzyl)-5,6,7,8-tetrahydronaphthalen-2-yl]propyl}propane-1-sulfonamide hydrochloride], the Ki was at most 1000 nM.

Turning to `NC1CCc2ccc(CCCNS(=O)(=O)CC3CC3)cc2C1Cc1ccccc1Cl` (stereo not shown) [Example 212, N-{3-[7-Amino-8-(2-chloro-benzyl)-5,6,7,8-tetrahydro-naphthalen-2-yl]-propyl}-C-cyclopropyl-methanesulfonamide hydrochloride], the Ki is at most 1000 nM.

Turning to `CCCS(=O)(=O)NCCCc1ccc2c(c1)C(Cc1ccc(F)cc1)C(N)CC2` (stereo not shown) [Example 213, N-{3-[7-Amino-8-(4-fluorobenzyl)-5,6,7,8-tetrahydronaphthalen-2-yl]propyl}propane-1-sulfonamide hydrochloride], the Ki was at most 100 nM.

Regarding `CCCS(=O)(=O)NCCCc1ccc2c(c1)C(Cc1cccc(F)c1)C(NC(C)=O)CC2` (stereo not shown) [Example 214, N-[1-(3-Fluorobenzyl)-7-{3-[(propylsulfonyl)amino]propyl}-1,2,3,4-tetrahydronaphthalen-2-yl]acetamide], the Ki is at most 10000 nM.

`CCCS(=O)(=O)NCCCc1ccc2c(c1)C(Cc1ccc(F)cc1)C(NC(C)=O)CC2` (stereo not shown) [Example 215, N-[1-(4-Fluorobenzyl)-7-{3-[(propylsulfonyl)amino]propyl}-1,2,3,4-tetrahydronaphthalen-2-yl]acetamide]: the Ki is at most 10000 nM.

For the molecule `CC(=O)NC1CCc2ccc(CCCNS(=O)(=O)CC3CC3)cc2C1Cc1ccccc1` (stereo not shown) [Example 216, N-[1-Benzyl-7-(3-{[(cyclopropylmethyl)sulfonyl]amino}propyl)-1,2,3,4-tetrahydronaphthalen-2-yl]acetamide], the Ki is at most 10000 nM.

In the case of `CCCS(=O)(=O)NCCCc1ccc2c(c1)C(Cc1ccccc1)C(NC(C)=O)CC2` (stereo not shown) [Example 217, N-[1-Benzyl-7-{3-[(propylsulfonyl)amino]propyl}-1,2,3,4-tetrahydronaphthalen-2-yl]acetamide], the Ki is at most 10000 nM.
